{"source": "patent US20240407371A1", "about": "“METHOD FOR THE KILLING, INACTIVATING, OR INHIBITING OF HARMFUL BLUE-GREEN ALGAE OR ALGAE CAPABLE OF CAUSING HARMFUL ALGAL BLOOM (HAB)” (priority 2021, published 2024)", "system": "Saprolegnia diclina", "assay": "Atlantic salmon eggs challenged with Saprolegnia diclina trojan eggs, immersion baths", "format": "in vivo, Atlantic salmon (Salmo solar L.) eggs", "conditions": "1665 ppm, 15 min bath daily", "data": [{"smiles": "C=O", "note": "[Formalin]", "values": [{"measurement": "signs of saprolegniosis", "value": "did not suffer any sign of saprolegniosis"}, {"measurement": "Average Number of Eggs Entangled", "setting": "Treatment E, 10 days", "value": 0.00}, {"measurement": "Average Percent Eggs Entangled", "setting": "Treatment E, 10 days", "value": 0.00}]}]}
